Patent US12728186B2, “Methods and kits for preparing pathogen-inactivated whole blood” (priority 2018, dated 2026)
Where “and” joins values, the source holds several entries; their conditions need not be identical. Identical values can stand only once.

Tests used:
[1] = Residual unreacted amustaline by LCMS, Example 3 (1-container vs 3-container kits, PVC1/PVC2/EVA bags); format: physicochemical
Description: In another study, pathogen-inactivated whole blood was prepared using amustaline and GSH, in 1-container or 3-container kits of the present disclosure, with the 3-container kits comprising second and third bags (e.g., transfer/storage containers) from three different sources (e.g., different plastics materials). The three different transfer/storage containers included a 600 mL container, comprising Transfufol 3226 PVC film (“PVC1”), a second 600 mL container from a different manufacturer comprising Transfufol 3226 PVC film (“PVC2”), and a 750 mL container from Cerus, comprising EVA (ethylene-vinyl acetate) 1800 film (“EVA”). Six ABO-matched whole blood units in anticoagulant were pooled and split into seven units of ~450 mL each. The seven whole blood units were subjected to pathogen inactivation under conditions of no transfer step between containers (e.g., processing performed in the 1-container kit), or two transfer steps between containers (e.g., processing performed in the 3-container kits) of the indicated storage/transfer bag source (Table 4). Amustaline and GSH were added to the whole blood units as described previously by sterile docking of a filter set to the tubing of an input port of the first containers, which contained the whole blood. Unit 1 was treated with amustaline and GSH at 0.2 mM and 2.0 mM final concentrations, respectively, in the first container and incubated at 22° C., with samples taken at 18, 20, 22 and 24 hours, with no container transfers. For units 2-7, amustaline and GSH were added to the whole blood (0.2 mM and 2.0 mM final concentrations, respectively) in the first container, followed by transfer to the second container and incubation at 22° C. for 18 hours. At 18 hours, samples were taken along with transfer of the mixture to the third container and further incubation at 22° C., with additional sampling at 2 hour intervals (20, 22 and 24 hr).
All samples were analyzed by LCMS to determine the level of residual, unreacted amustaline as previously described. […] Following a second transfer (i.e., to third container) at 18 hr and further incubation at 22° C., residual amustaline was less than 1 nM at the 20 hr time point (i.e., 2 hours after bag transfer) for kits with two different container types and approaching 1 nM for kits with the third container type.

[2] = Residual unreacted amustaline by LCMS, Example 2 (3-container kit); format: physicochemical
Description: Another study was performed to evaluate the effect of container transfer on residual levels of amustaline after pathogen-inactivation of whole blood using a 3-container kit of the present disclosure to allow for one or two transfer steps from the initial (e.g., first) container and a similar filter set as Example 1. Six ABO matched whole blood units in anticoagulant were pooled and split into six ~450 mL units transferred into the first blood bag container of the kit comprising Transfufol 3226 PVC film (Renolit), followed by severing and sealing the pooled donor blood bag, and subsequent connection by tubing welding of a filter set to the same input port (e.g., attached tubing) of the first container, for transferring amustaline and GSH into the whole blood. Amustaline and GSH were added to the whole blood units at final concentrations of 0.2 mM and 2.0 mM, respectively, followed by transfer of the mixture to the second bag (Transfufol 3226 PVC film) and incubated at 22° C. At 22 hr, samples were taken for analysis along with transfer of the mixture to the third bag (Transfufol 3226 PVC film), followed by further incubation at 22° C., with additional samples taken for analysis at 24 hr (i.e., 2 hr post-final transfer) and 26 hr (i.e., 4 hr post-final transfer).
Samples were analyzed by LCMS to determine the level of residual, unreacted amustaline as previously described.

SMILES: O=C(CCNc1c2ccccc2nc2ccccc12)OCCN(CCCl)CCCl [amustaline]
- Residual amustaline levels in pathogen-inactivated whole blood, 18 hr ([1]; 18 hr (at transfer to third container), Units 2-3, 3 bag kit, 2x transfer, PVC1 transfer bags, 22° C.): 1.75 nM and 1.52 nM
- Residual amustaline levels in pathogen-inactivated whole blood, 18 hr ([1]; 18 hr (at transfer to third container), Units 4-5, 3 bag kit, 2x transfer, PVC2 transfer bags, 22° C.): 1.45 nM and 1.48 nM
- Residual amustaline levels in pathogen-inactivated whole blood, 18 hr ([1]; 18 hr (at transfer to third container), Units 6-7, 3 bag kit, 2x transfer, EVA transfer bags, 22° C.): 3.11 nM and 3.51 nM
- Residual amustaline levels in pathogen-inactivated whole blood, 18 hr ([1]; 18 hr, Unit 1, 1 bag kit, no transfer, 22° C.): 2.16 nM
- residual amustaline at the 20 hr time point, kits with the third container type ([1]; 20 hr (2 hours after bag transfer at 18 hr), 3-container kits, third container type, 22° C.): ~1 nM
- residual amustaline at the 20 hr time point, kits with two container types ([1]; 20 hr (2 hours after bag transfer at 18 hr), 3-container kits, two different container types, 22° C.): less than 1 nM
- Residual amustaline levels in pathogen-inactivated whole blood, 20 hr ([1]; 20 hr (third container from 18 hr), Units 2-3, 3 bag kit, 2x transfer, PVC1 transfer bags, 22° C.): 0.88 nM and 0.78 nM
- Residual amustaline levels in pathogen-inactivated whole blood, 20 hr ([1]; 20 hr (third container from 18 hr), Units 4-5, 3 bag kit, 2x transfer, PVC2 transfer bags, 22° C.): 0.85 nM and 0.87 nM
- Residual amustaline levels in pathogen-inactivated whole blood, 20 hr ([1]; 20 hr (third container from 18 hr), Units 6-7, 3 bag kit, 2x transfer, EVA transfer bags, 22° C.): 1.14 nM and 1.22 nM
- Residual amustaline levels in pathogen-inactivated whole blood, 20 hr ([1]; 20 hr, Unit 1, 1 bag kit, no transfer, 22° C.): 1.99 nM
- Residual amustaline levels in pathogen-inactivated whole blood, 22 hr ([1]; 22 hr (third container from 18 hr), Units 2-3, 3 bag kit, 2x transfer, PVC1 transfer bags, 22° C.): BLOQ (BLOQ = Below Limit of Quantitation (e.g., <0.75 nM))
- Residual amustaline levels in pathogen-inactivated whole blood, 22 hr ([1]; 22 hr (third container from 18 hr), Units 4-5, 3 bag kit, 2x transfer, PVC2 transfer bags, 22° C.): BLOQ (BLOQ = Below Limit of Quantitation (e.g., <0.75 nM))
- Residual amustaline levels in pathogen-inactivated whole blood, 22 hr ([1]; 22 hr (third container from 18 hr), Units 6-7, 3 bag kit, 2x transfer, EVA transfer bags, 22° C.): BLOQ (BLOQ = Below Limit of Quantitation (e.g., <0.75 nM))
- level of residual amustaline at 22 hr and 24 hr, 3-container kits ([1]; 22 hr and 24 hr (4 or 6 hours after bag transfer), all samples in 3-container kits, three container types): below the limit of quantitation
- Residual amustaline levels in pathogen-inactivated whole blood, 22 hr ([1]; 22 hr, Unit 1, 1 bag kit, no transfer, 22° C.): 1.46 nM
- Residual amustaline levels in pathogen-inactivated whole blood, 24 hr ([1]; 24 hr (third container from 18 hr), Units 2-3, 3 bag kit, 2x transfer, PVC1 transfer bags, 22° C.): BLOQ (BLOQ = Below Limit of Quantitation (e.g., <0.75 nM))
- Residual amustaline levels in pathogen-inactivated whole blood, 24 hr ([1]; 24 hr (third container from 18 hr), Units 4-5, 3 bag kit, 2x transfer, PVC2 transfer bags, 22° C.): BLOQ (BLOQ = Below Limit of Quantitation (e.g., <0.75 nM))
- Residual amustaline levels in pathogen-inactivated whole blood, 24 hr ([1]; 24 hr (third container from 18 hr), Units 6-7, 3 bag kit, 2x transfer, EVA transfer bags, 22° C.): BLOQ (BLOQ = Below Limit of Quantitation (e.g., <0.75 nM))
- Residual amustaline levels in pathogen-inactivated whole blood, 24 hr ([1]; 24 hr, Unit 1, 1 bag kit, no transfer, 22° C.): 1.54 nM
- Residual amustaline levels in pathogen-inactivated whole blood, 22 hr ([2]; Units 1-6, 3-container kit (PVC), moved to second bag after amustaline/GSH addition, 22° C., 22 hr, at transfer to third bag): 1.46 nM and 1.39 nM and 1.35 nM and 1.96 nM and 1.84 nM and 1.55 nM
- Residual amustaline levels in pathogen-inactivated whole blood, 26 hr ([2]; Units 1-6, 3-container kit (PVC), third bag from 22 hr, 22° C., 26 hr (4 hr post-final transfer)): BLOQ (BLOQ = Below Limit of Quantitation (e.g., < 0.75 nM))
- residual amustaline levels after transfer to third bag ([2]; third bag after 22 hr, further 22° C. for 2 hr or 4 hr, all samples): below 1 nM
